Data taken from PubChem BioAssay AID463229 (Broad Institute, 2010).
Active and inactive are the calls of the source.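 The calls were made as follows: active = compounds raising the signal whose fitted half-maximal concentration is at or below their top tested dose (cut at about 25 µM in these data); inconclusive = flat fit at 30 to 70% activity, or a poor fit; inactive = the rest.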

Tested on: INS-1E rat beta cells, no cytokines, CellTiter-Glo ATP, 48 h
Assay: ATP level change in INS-1E without cytokines, dose response, counter-screen for beta-cell apoptosis protection project, INS-1E rat cells, ATP luminescence, cherry pick (AID 463229)

Going from `COc1cc2c(cc1OC)[C@@H]1C(=O)c3ccc4c(c3O[C@@H]1CO2)C[C@H](C(C)C)O4` to `COc1ccc(CNCCC(c2ccc(OC(C)C)cc2)C(C)C)cc1OC` (centres undefined), the AC50 rises from less than 0.195 µM to 15 µM.

`Oc1ccc(COCc2ccccc2)c2cccnc12` and `O=C(N/N=C/c1sc2ccccc2c1O)c1ccccc1` are within 1.5-fold of each other in AC50: 4.28 µM for the first, 3.92 µM for the second.

Compared with `O=C(Oc1c(CN2CCOCC2)cc(Cl)c2cccnc12)c1cccs1`, `O=C(c1cc(COc2ccc3ncccc3c2)on1)N1CCCCCC1` is 2-fold lower in AC50: 16 µM for the first, 8.02 µM for the second.

Going from `CCN(C1CCCCC1)S(=O)(=O)c1ccc(S(=O)(=O)NCc2ccncc2)cc1` to `CC1CCCCC1NS(=O)(=O)c1ccc(S(=O)(=O)NCc2ccncc2)cc1` (centres undefined), the AC50 falls from 6.3 µM to 4.07 µM (1.5-fold).

First: CSc1ccccc1OCc1cc(C(=O)N2CCc3c(Cl)cccc3C2)no1
Second: O=C(c1cc(-c2cccc(O)c2)on1)N1CCN(C(c2ccccc2)c2ccccc2)CC1
The AC50 of the first is 2.1-fold lower: 6.99 µM for the first, 14.4 µM for the second.

`Cc1cc(C(=O)NC2CCCc3c2cnn3-c2cccc(C)c2C)n(C)n1` (centres undefined) and `Cc1cc(C(=O)NC2CCCc3c2cnn3-c2ccc(C)c(C)c2)n(C)n1` (centres undefined) are within 1.5-fold of each other in AC50: 0.342 µM for the first, 0.378 µM for the second.

`O=C(Nc1cccc(Cl)c1)Nc1nnc(-c2ccncc2)s1` and `O=C(Nc1ccc(Cl)cc1)Nc1nnc(CSCc2ccc(Cl)cc2)s1` are within 1.5-fold of each other in AC50: 6.36 µM for the first, 6.74 µM for the second.

Compared with `CC(=O)N1c2ccc(S(=O)(=O)N3CCC(C(=O)N4CCN(c5cccc(C(F)(F)F)c5)CC4)CC3)cc2CC1C` (centres undefined), `COc1ccc(CC(=O)Nc2cccc(S(=O)(=O)N3CCCCCC3)c2)cc1OC` is 1.7-fold higher in AC50: 5.82 µM for the first, 10 µM for the second.

`CCOc1ccc(-n2c(-c3ccccc3)c[n+]3c2CCC3)cc1` and `COc1ccc(-n2c(-c3ccc(Br)cc3)c[n+]3c2CCCCC3)cc1` are within 1.5-fold of each other in AC50: 1.53 µM for the first, 1.06 µM for the second.

Compared with `Cc1ccc(S(=O)(=O)/N=C2\C=C(Nc3ccc(O)cc3)C(=O)c3ccccc32)cc1`, `Cc1ccccc1NC1=C/C(=N\S(=O)(=O)c2ccc(C(=O)O)cc2)c2ccccc2C1=O` is 6.3-fold higher in AC50: 1.91 µM for the first, 12 µM for the second.

Compared with `O=S(=O)(c1ccc(F)c(F)c1F)N1CCN(c2ncnc3sccc23)CC1`, `c1ccc(N2CCN(c3nc(-c4ccccn4)nc4ccccc34)CC2)cc1` is 2.1-fold higher in AC50: 7.17 µM for the first, 14.9 µM for the second.

`CCN(CC)c1ccc(/C=N/NC(=O)Cc2cccs2)c(O)c1` and `Cc1cc(N/N=C/c2ccc(O)cc2O)nc(-n2nc(C)cc2C)n1` are within 1.5-fold of each other in AC50: 4.5 µM for the first, 6.67 µM for the second.

Compared with `COc1ccc(CCNc2ncnc3c2oc2ccccc23)cc1OC`, `Cc1cccc(Nc2nc(NCc3ccco3)c3ccccc3n2)c1` is 2.4-fold higher in AC50: 3.41 µM for the first, 8.03 µM for the second.

`Oc1ccc(-c2n[nH]c(C(F)(F)F)c2-c2ccccc2)c(O)c1` and `N#Cc1ccc(C(=O)Nc2nc(-c3cccs3)c(C(=O)C(F)(F)F)s2)cc1` are within 1.5-fold of each other in AC50: 5.86 µM for the first, 4.37 µM for the second.

`CN(C)CCCN(C(=O)c1ccc(S(=O)(=O)N(C)Cc2ccccc2)cc1)c1nc2cc3c(cc2s1)OCO3` and `COc1ccc(S(=O)(=O)N(C(=O)c2ccco2)c2cc3sc(=O)oc3c3ccccc23)cc1` are within 1.5-fold of each other in AC50: 15.9 µM for the first, 14.5 µM for the second.

Compared with `Brc1ccccc1CN1CCN(Cc2c[nH]c3ccccc23)CC1`, `COc1ccc(Nc2nc(N3CCCCC3)c3ccccc3n2)cc1` is 4.3-fold higher in AC50: 2.76 µM for the first, 12 µM for the second.

Going from `COc1ccc(C(=O)NCC(=O)N/N=C/c2ccc([N+](=O)[O-])s2)cc1OC` to `CC(=O)c1c(C)[nH]c(C(=O)OCC(=O)Nc2ccc(C)cc2[N+](=O)[O-])c1C`, the AC50 falls from 13.5 µM to 1.6 µM (8.4-fold).

Going from `Cc1cccc(Cn2nnc3c2C(=O)c2ccccc2C3=O)c1` to `O=C(NC1=C(Nc2ccc(Cl)cc2)C(=O)c2ccccc2C1=O)c1ccccc1`, the AC50 rises from 10.5 µM to 21.8 µM (2.1-fold).

`O=C1C(Nc2ccccc2)=C/C(=N/S(=O)(=O)c2cccs2)c2ccccc21` and `Cc1ccc(-c2sc(-c3ccccc3)nc2CC(=O)Nc2ccccc2F)cc1` are within 1.5-fold of each other in AC50: 2.07 µM for the first, 2.06 µM for the second.

`Cn1nnnc1Sc1ncnc2scc(-c3cc4ccccc4o3)c12` and `CC1=NNC(=O)/C1=C\c1cn(-c2ccccc2)nc1-c1ccc(Cl)cc1` are within 1.5-fold of each other in AC50: 7.61 µM for the first, 10.9 µM for the second.

First: Cc1sc2ncnc(NCC(C)(C)N3CCOCC3)c2c1C
Second: Cc1cc(NC2CCCCC2)nc(NCc2ccccc2)n1
The AC50 of the first is 1.6-fold higher: 6.11 µM for the first, 3.71 µM for the second.

Compared with `CCCOc1ccc(Cc2c(Cl)nc(SC)nc2NC)cc1`, `COc1ccc(Cc2nc(-c3ccc(NC(=O)c4cccnc4)cc3)no2)cc1` is 21-fold lower in AC50: 6.05 µM for the first, 0.286 µM for the second.

Going from `Cc1ccc(N=Nc2c(O)ccc3n[nH]nc23)cc1` to `Cc1[nH]n(C2=NCCS2)c(=O)c1N=Nc1cccc(C(F)(F)F)c1`, the AC50 rises from 4.37 µM to 7.05 µM (1.6-fold).

Going from `CCCCCCCCCCOC(=O)Cn1c(COc2ccccc2OC)[n+](C)c2ccccc21` to `CC1CCC(C(C)C)C(OC(=O)Cn2c(-c3ccc(Cl)cc3)[n+](C)c3ccccc32)C1` (centres undefined), the AC50 rises from 1.09 µM to 3.83 µM (3.5-fold).

`COc1ccc(-c2n(Cc3ccccc3)c3ccccc3[n+]2Cc2ccccc2)cc1` and `Cc1cc(C)cc(NC(=O)/C(C#N)=C/c2cn(CC(=O)NCc3ccco3)c3ccccc23)c1` are within 1.5-fold of each other in AC50: 3.95 µM for the first, 5.06 µM for the second.

Compared with `C[n+]1c2n(c3ccccc31)N=C(c1cc(C(C)(C)C)c(O)c(C(C)(C)C)c1)CS2`, `O=C(N/N=C/c1cc(Br)cc(Cl)c1O)c1ccc2c(c1)OCO2` is 28-fold higher in AC50: 0.39 µM for the first, 11 µM for the second.

`O=[N+]([O-])c1ccc(NC(=S)NCCc2ccc(Cl)cc2)cc1` showed an AC50 of 8.12 µM.

With `Cc1ccc(Sc2cc(C)nc(-c3ccccn3)n2)cc1` the AC50 was > 26 µM (inactive).
